Assays:
[1] = tested on: adult patients with Type 1 Diabetes Mellitus who have inadequate glycemic control with insulin therapy; experiment: inTandem 1 and inTandem 2 pooled clinical studies, safety events / main risks; assay type: in vivo, human; details: for Discontinuation of drug due to diarrhea / Patients with Any TEAE, (%) / Patients with DKA (positively adjudicated), (%) / Patients with Diarrhea, (%) / Patients with Genital mycotic infection, (%) / Patients with Severe hypoglycemia (positively adjudicated), (%): through 52 Weeks
[2] = tested on: adult patients diagnosed with T1D who have inadequate glycemic control with insulin therapy; experiment: inTandem 3 phase 3 randomized double-blind placebo-controlled study; assay type: in vivo, human; details: for A1C (%) LS Mean Difference (SE) / Body weight (kg) LS Mean Difference (SE) / Fasting plasma glucose (mg/dL) LS Mean Difference (SE) / SBP (mmHg) LS Mean Difference (SE): 400 mg vs placebo; for A1C (%) LS Mean Difference (SE) / Body weight (kg) LS Mean Difference (SE) / Fasting plasma glucose (mg/dL) LS Mean Difference (SE) / SBP (mmHg) LS Mean Difference (SE) / A1C (%) LS Mean change (SE) / Body weight (kg) LS Mean change (SE) / Fasting plasma glucose (mg/dL) LS Mean change (SE) / SBP (mmHg) LS Mean change (SE): InTandem3; for A1C (%) LS Mean change (SE) / Body weight (kg) LS Mean change (SE) / Fasting plasma glucose (mg/dL) LS Mean change (SE) / SBP (mmHg) LS Mean change (SE): 400 mg
[3] = 400 mg, Baseline BMI <27 kg/m^2, Week 52
[4] = 400 mg, Baseline BMI ≥27 kg/m^2, Week 52
[5] = Baseline BMI <27 kg/m^2, Week 24
[6] = Baseline BMI ≥27 kg/m^2, Week 24
[7] = Sotagliflozin 400 mg vs placebo, Week 24
[8] = Sotagliflozin 400 mg, Week 16, SBP ≥130 mm Hg at baseline
[9] = Sotagliflozin 400 mg, Week 24, insulin pump users
[10] = Sotagliflozin 400 mg, Week 24, nonpump users

## CCOc1ccc(Cc2cc([C@@H]3O[C@H](SC)[C@@H](O)[C@H](O)[C@H]3O)ccc2Cl)cc1 [sotagliflozin, (2S,3R,4R,5S,6R)-2-(4-chloro-3-(4-ethoxybenzyl)phenyl)-6-(methylthio)tetrahydro-2H-pyran-3,4,5-triol]
[1]; [3]
  Positively Adjudicated Diabetic Ketoacidosis, Events per Subject per Year: 0.049 Events per Subject per Year
  Positively Adjudicated Severe Hypoglycemia, EAIR per 1,000 Subject-years (95% CL): 59.50 (24.34, 94.67) per 1,000 Subject-years
  Positively Adjudicated Severe Hypoglycemia, Events [n (%) n]: events n: 16
  Positively Adjudicated Severe Hypoglycemia, Events [n (%) n]: patients (%): 5.2%
  Positively Adjudicated Severe Hypoglycemia, Events per Subject per Year: 0.087 Events per Subject per Year
  Positively Adjudicated Severe Hypoglycemia, Relative Risk of EAIR (95% CL) Versus Placebo: 0.71 (0.32, 1.51)
[1]; [4]
  Diarrhea, EAIR per 1,000 Subject-years (95% CL): 92.38 (57.53, 127.23) per 1,000 Subject-years
  Diarrhea, Events [n (%) n]: events n: 37
  Diarrhea, Events [n (%) n]: patients (%): 8.6%
  Diarrhea, Events [n (%) n]: patients n: 27
  Diarrhea, Events per Subject per Year: 0.127 Events per Subject per Year
  Diarrhea, Relative Risk of EAIR (95% CL) Versus Placebo: 1.25 (0.70, 2.27)
  Documented hypoglycemia <55 mg/dL, Events per Subject per Year: 14.45 Events per Subject per Year
  Genital Mycotic Infections (female), EAIR per 1,000 Subject-years (95% CL): 192.26 (121.05, 263.48) per 1,000 Subject-years
  Genital Mycotic Infections (female), Events [n (%) n]: events n: 48
  Genital Mycotic Infections (female), Events [n (%) n]: patients (%): 17.6%
  Genital Mycotic Infections (female), Events per Subject per Year: 0.330 Events per Subject per Year
  Genital Mycotic Infections (female), Relative Risk of EAIR (95% CL) Versus Placebo: 2.70 (1.30, 6.04)
  Genital Mycotic Infections (male), EAIR per 1,000 Subject-years (95% CL): 47.74 (12.37, 83.10) per 1,000 Subject-years
  Genital Mycotic Infections (male), Events [n (%) n]: events n: 10
  Genital Mycotic Infections (male), Events [n (%) n]: patients (%): 4.5%
  Genital Mycotic Infections (male), Events per Subject per Year: 0.068 Events per Subject per Year
  Genital Mycotic Infections (male), Relative Risk of EAIR (95% CL) Versus Placebo: 6.93 (1.07, 157.36)
  Positively Adjudicated Diabetic Ketoacidosis, EAIR per 1,000 Subject-years (95% CL): 37.64 (15.39, 59.88) per 1,000 Subject-years
  Positively Adjudicated Diabetic Ketoacidosis, Events [n (%) n]: events n: 11
  Positively Adjudicated Diabetic Ketoacidosis, Events [n (%) n]: patients (%): 3.5%
  Positively Adjudicated Diabetic Ketoacidosis, Events per Subject per Year: 0.038 Events per Subject per Year
  Positively Adjudicated Diabetic Ketoacidosis, Relative Risk of EAIR (95% CL) Versus Placebo: 10.22 (1.74, 221.94)
  Positively Adjudicated Severe Hypoglycemia, EAIR per 1,000 Subject-years (95% CL): 41.06 (17.83, 64.29) per 1,000 Subject-years
  Positively Adjudicated Severe Hypoglycemia, Events [n (%) n]: events n: 17
  Positively Adjudicated Severe Hypoglycemia, Events [n (%) n]: patients (%): 3.8%
  Positively Adjudicated Severe Hypoglycemia, Events per Subject per Year: 0.058 Events per Subject per Year
  Positively Adjudicated Severe Hypoglycemia, Relative Risk of EAIR (95% CL) Versus Placebo: 0.51 (0.24, 1.02)
[1]; SOTA 200 mg
  Discontinuation of drug due to diarrhea: 0.4%
  Patients with Any TEAE, (%): (75.0) %
  Patients with DKA (positively adjudicated), (%): (2.9) %
  Patients with Diarrhea, (%): (6.5) %
  Patients with Genital mycotic infection, (%): (9.2) %
  Patients with Severe hypoglycemia (positively adjudicated), (%): (5.7) %
[1]; SOTA 400 mg
  Discontinuation of drug due to diarrhea: 0.8%
  Patients with Any TEAE, (%): (74.3) %
  Patients with DKA (positively adjudicated), (%): (3.8) %
  Patients with Diarrhea, (%): (8.8) %
  Patients with Genital mycotic infection, (%): (12.0) %
  Patients with Severe hypoglycemia (positively adjudicated), (%): (4.4) %
[1]; baseline BMI ≥27 kg/m^2, any doses
  risk of diarrhea compared to placebo: No increased risk
[1]; both BMI subgroups
  risk of DKA versus placebo: increased
[1]; both doses, baseline BMI ≥27 kg/m^2 (only 400 mg in BMI <27 kg/m^2)
  risk of severe hypoglycemia: numerically lower risk
[1]; both doses, both BMI subgroups
  event rates of documented hypoglycemia ≤55 mg/dL: numerically lower
[2]; 400 mg versus placebo
  primary endpoint (A1C <7.0% at Week 24, no severe hypoglycemia, no DKA): reached its primary endpoint
[2]; [5]
  A1C (%) LS Mean Difference (SE): −0.37 (0.068) %
  Body weight (kg) LS Mean Difference (SE): −2.47 (0.213) kg
  Fasting plasma glucose (mg/dL) LS Mean Difference (SE): −21.7 (5.78) mg/dL
  SBP (mmHg) LS Mean Difference (SE): −3.4 (0.92) mmHg
  A1C (%) LS Mean change (SE): −0.72 (0.051) %
  Body weight (kg) LS Mean change (SE): −1.71 (0.157) kg
  Fasting plasma glucose (mg/dL) LS Mean change (SE): −10.4 (4.30) mg/dL
  SBP (mmHg) LS Mean change (SE): −1.7 (0.69) mmHg
[2]; [6]
  A1C (%) LS Mean Difference (SE): −0.54 (0.051) %
  Body weight (kg) LS Mean Difference (SE): −3.41 (0.247) kg
  Fasting plasma glucose (mg/dL) LS Mean Difference (SE): −24.3 (4.69) mg/dL
  SBP (mmHg) LS Mean Difference (SE): −3.2 (0.79) mmHg
  A1C (%) LS Mean change (SE): −0.86 (0.065) %
  Body weight (kg) LS Mean change (SE): −2.80 (0.277) kg
  Fasting plasma glucose (mg/dL) LS Mean change (SE): −23.5 (6.34) mg/dL
  SBP (mmHg) LS Mean change (SE): −3.8 (1.19) mmHg
[2]; BMI ≥27 kg/m^2 vs <27 kg/m^2, InTandem 3
  efficacy compared to placebo on A1C and body weight in the overweight and obese subgroup: more favorable effect
[2]; Sotagliflozin 400 mg (n = 699), Week 24
  Primary endpoint: Patients achieving glycated hemoglobin <7% without DKA and no severe hypoglycemia, All patients, no.: 200
[2]; Sotagliflozin 400 mg vs placebo, Week 16, SBP ≥130 mm Hg at baseline
  Systolic blood pressure in patients with SBP ≥130 mm Hg at baseline, Week 16 LS mean change, LS mean difference from placebo: −3.5 ± 1.11 mm Hg
[2]; [7]
  Daily bolus insulin dose, Week 24 LS mean change from baseline ± SE, LS mean difference from placebo: −2.84 ± 0.61 IU/day
  Daily bolus insulin dose, Week 24 LS mean percent change from baseline ± SE, LS mean difference from placebo: −12.32 ± 2.98%
  Glycated hemoglobin, Week 24 LS mean change from baseline ± SE, LS mean difference from placebo: −0.46 ± 0.04%
  Primary endpoint, All patients, LS mean difference from placebo (95% CI): 13.4% (8.97 to 17.81)
  Weight, Week 24 LS mean change from baseline ± SE, LS mean difference from placebo: -2.98 ± 0.166 kg
[2]; Sotagliflozin 400 mg vs placebo, Week 24, insulin pump users
  Primary endpoint, Insulin pump users, LS mean difference from placebo (95% CI): 15.9% (8.58 to 23.38)
[2]; Sotagliflozin 400 mg vs placebo, Week 24, nonpump users
  Primary endpoint, Nonpump users, LS mean difference from placebo (95% CI): 11.8% (6.14 to 17.38)
[2]; [8]
  Systolic blood pressure in patients with SBP ≥130 mm Hg at baseline, Week 16 LS mean change from baseline ± SE: −9.2 ± 0.92 mm Hg
  Systolic blood pressure in patients with SBP ≥130 mm Hg at baseline, Week 16 mean ± SD: 131.8 ± 12.02 mm Hg
[2]; Sotagliflozin 400 mg, Week 24
  Daily bolus insulin dose, Week 24 LS mean change from baseline ± SE: −3.93 ± 0.47 IU/day
  Daily bolus insulin dose, Week 24 LS mean percent change from baseline ± SE: −5.71 ± 2.29%
  Daily bolus insulin dose, Week 24 mean ± SD: 23.90 ± 15.76 IU/day
  Glycated hemoglobin, Week 24 LS mean change from baseline ± SE: −0.79 ± 0.03%
  Glycated hemoglobin, Week 24 mean ± SD: 7.41 ± 0.95%
  Primary endpoint: Patients achieving glycated hemoglobin <7% without DKA and no severe hypoglycemia, All patients, (%): 28.6%
  Weight, Week 24 LS mean change from baseline ± SE: -2.21 ± 0.12 kg
  Weight, Week 24 mean ± SD: 80.19 ± 17.02 kg
[2]; [9]
  Primary endpoint, Insulin pump users, (%): 32.0%
  Primary endpoint, Insulin pump users, no.: 88
[2]; [10]
  Primary endpoint, Nonpump users, (%): 26.4%
  Primary endpoint, Nonpump users, no.: 112

Reference: patent US20240226125A1, “USE OF SOTAGLIFLOZIN FOR THE TREATMENT OF PATIENTS WITH TYPE 1 DIABETES MELLITUS” (priority 2019, published 2024)
